Results taken from ChEMBL document CHEMBL1142035.

Molecular target: MAP kinase-activated protein kinase 2 (Homo sapiens, UniProt P49137)
Sequence (P49137 whole entry): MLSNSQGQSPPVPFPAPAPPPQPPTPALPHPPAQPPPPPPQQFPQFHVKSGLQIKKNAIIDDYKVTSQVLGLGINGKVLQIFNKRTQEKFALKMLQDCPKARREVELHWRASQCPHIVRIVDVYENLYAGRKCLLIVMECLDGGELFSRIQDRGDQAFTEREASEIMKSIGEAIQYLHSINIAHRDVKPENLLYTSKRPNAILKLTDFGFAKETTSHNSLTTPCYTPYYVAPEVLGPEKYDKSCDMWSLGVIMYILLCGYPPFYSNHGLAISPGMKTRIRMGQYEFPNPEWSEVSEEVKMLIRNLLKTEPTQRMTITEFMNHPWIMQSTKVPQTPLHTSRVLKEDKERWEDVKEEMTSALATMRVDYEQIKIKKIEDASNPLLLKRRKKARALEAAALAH
Description: Concentration of 50% inhibition by compound towards mitogen activated protein kinase -activated protein kinase 2

SMILES | IC50
N#Cc1c(N)nc2c(c1N)Cc1ccccc1S2(=O)=O | > 200 µM
COc1ccc2c(c1)Oc1cc(N)c(C#N)c(N)c1C2c1ccccc1 (stereo not given) | > 200 µM
CCNc1cc2c(c(NCC)c1C#N)Cc1cc(O)c(O)cc1O2 | > 200 µM
N#Cc1c(N)cc2c(c1N)C(c1ccccc1)c1ccc(O)cc1O2 (stereo not given) | > 200 µM
N#Cc1c(N)nc2c(c1N)Cc1ccccc1S2 | > 200 µM
